Reference: patent publication US20110262383A1, “Naphthalimide Dosing by N-Acetyl Transferase Genotyping” (ChemGenex Pharmaceuticals, Inc., priority 2004, published 2011)
Where a name gives a salt, the structure may show the parent alone.

Experiments:
[1] = tested on: white blood cell count (WBC); details: patients; cited from earlier work
[2] = tested on: Neutrophils; assay: Myelosuppression (reduction of neutrophils) by NAT-2 genotype in patients; assay type: in vivo, human
Description: Thirty-two (32) patients were treated amonafide dihydrochloride. Sixteen (16) were male and sixteen (16) were female. The mean age was 65 years. The dose schedule was days 1, 8, 15 and thereafter every 28 days. The dosages ranged from 300 to 500 mg/m^2 in a dose escalation studied to determine dose limiting toxicity (DLT).
Patients were genotyped to determine their NAT-2 (N-acetyl transferase) genotype. See D. W. Hein, et al., “Molecular Genetics and Epidemiology of the NAT1 and NAT2 Acetylation Polymorphisms,” Cancer Epidemiology, Biomarkers & Prevention Vol. 9, 29-42, January 2000.

[3] = Water solubility of amonafide salts; assay type: physicochemical; details: as compared to a monohydrochloride salt

Structure (SMILES)	effect on white blood cell count [1]	Average % Reduction of Neutrophils ([2]; I/R (Fast) genotype, 18 patients, dose 400 mg/m2)	Average % Reduction of Neutrophils ([2]; I/R (Fast) genotype, 18 patients, dose 400 mg/m2, listed as amonafide)	Average % Reduction of Neutrophils ([2]; S (Slow) genotype, 14 patients, dose 500 mg/m2)	solubility in water [3]
CC(=O)Nc1cc2c3c(cccc3c1)C(=O)N(CCN(C)C)C2=O [acetyl amonafide, N-acetyl amonafide]	induce leukocytopenia and, in particular, granulocytopenia	–	–	–	–
CN(C)CCN1C(=O)c2cccc3cc(N)cc(c23)C1=O [amonafide dihydrochloride, 5-amino-2-[(dimethylamine)ethyl]-1H-benz[de-]isoquinoline-1,3-(2H)-dione]	–	78%	~80%	55%	more soluble in water
